Values quoted from earlier work as cited in patent US6365131B1, “Pharmaceutical dental formulation for topical application of metronidazole benzoate, chlorhexidine gluconate and local anesthetic” (priority 1997, dated 2002).

CCN(CC)CC(=O)Nc1c(C)cccc1C [Lidocaine]
Onset of anesthesia (depending on the site of administration): within a few minutes
Duration of action (in words): intermediate duration of action

CCOC(=O)c1ccc(N)cc1 [Benzocaine, ethyl ester of p-Aminobenzoic acid]
Time to peak effect (after the application to skin or mucosal surface): ≤ 1 min
